Measurements published in patent publication US5643954A, “Method of preventing and alleviating stress in a healthy mammal in need thereof” (priority 1993, dated 1997).
Like-named read-outs stand apart in the source and are kept apart here.

How the values were obtained:
[1] = tested on: chronic electric painful influence; settings: for daily 15% ethanol consumption: M ± m
Procedure: In the test and control groups of animals, a determination was given during 7 days to an individual daily consumption of 15% ethanol in the conditions of free choice between said 15% ethanol and water. Thereafter the young rats were subjected to quintuple electric painful influence, daily for 2 weeks, on the paws for 5 minutes, duration 1 sec.; the grown-up animals--tenfold influence for 10 minutes, duration 1 sec. […] The control group received a corresponding volume of water.

[2] = orientation motive activity of mice, automated registration of movements; type: in vivo, mice (male); settings: for Number of movements in 10 min in register: M ± m
Procedure: (§1) Experiments were conducted in vivo on male mice weighing 18-22 g and male rats weighing 200-250 g, as well as in vitro on the isolated organs: a guinea pig's ileum and a rat's seminal effervesces.

[3] = tested on: rat's seminal effervesce (adrenaline); settings: for Amplitude of concentration in % to control / Amplitude of concentration: adrenaline; for Amplitude of concentration: M ± m
Procedure: as §1

[4] = Procedure: The examination of attention was performed by using Schulte test which provides for a square chart produced before a patient (tested) that is divided into 49 squares containing confusedly arranged red and black numbers (24 and 25, respectively). The numbers are sought in the chart in strict order, say, red ones in increasing order and black ones in decreasing order, and along with this, the time is fixed for execution of the entire assignment, the time of search of each and every figure and the number of mistakes. The test makes it possible to assess attention and reveal the persons having enhanced emotional responses.
To study the state of short-lived memory, use was made of a test based on reproduction of 10 two-digit numbers shown on the screen for 20 sec. […] Sensomotor reactions were evaluated with the aid of a visual-motor reaction (differentiation of optical signals from 20 applications).

[5] = for Number of errors per 500 symbols: M ± m
Procedure: Examination of the mental capacity dynamics of the tested was performed in two stages.

[6] = tested on: acute stress action (electric painful influence)
From the text: The test and control young rats were subjected to a single electric painful influence in a matter of a second ("electric floor" 59 hertz, 35 v). […] Sixty minutes after, the behaviour of animals was investigated in the "open field" test.

hexenal effects = settings: M ± m
strychnine effects = settings: for Threshold doses Strychnine 0,01% solution, death of animal / Threshold doses Strychnine 0,01% solution, start of twitch: M ± m
EEG [7] = settings: for Biopotential slow form amplitude / Expression of biopotential slow forms / Expression of pathologically acute waves and peaked oscillation / Expression of α-rhythm / Paroxysmal bursts / α-frequency / α-oscillation amplitude / β-rhythm amplitude / β-rhythm expression / β-rhythm, low-frequency expression: M
EEG [8] = settings: M
[9] = taken once or regularly (14 days)
[10] = after taking the preparation, M ± m
[11] = week's fourth day, after classes
[12] = week's fourth day, before classes, after dose
[13] = week's second day, after classes
[14] = week's second day, before classes, after dose
[15] = 200 mg/kg single administration

aminoacetic acid [claimed preparation]
daily 15% ethanol consumption ([1]; adult animals, 2nd week, 1 to 2 mg/kg tongue root): 3.4 ± 0.13 mL | daily 15% ethanol consumption ([1]; adult animals, 4th week (after cancellation)): 2.3 ± 0.3 mL | daily 15% ethanol consumption ([1]; adult animals, 3d week, 1 to 2 mg/kg tongue root): 2.5 ± 0.15 mL | daily 15% ethanol consumption ([1]; adult animals, Test, 1st week (before stress and administration)): 1.8 ± 0.08 mL | aggressiveness and exciteability ([1]; during the entire experiment, vs control groups): considerable reduction of aggressiveness and exciteability | alcohol motivation ([1]; rat, in vivo): diminishes the alcohol motivation of the animals | daily 15% ethanol consumption ([1]; young rats, 2nd week, 1 to 2 mg/kg tongue root): 4.4 ± 0.3 mL | daily 15% ethanol consumption ([1]; young rats, 4th week (after cancellation)): 1.6 ± 0.18 mL | daily 15% ethanol consumption ([1]; young rats, 3d week, 1 to 2 mg/kg tongue root): 2.0 ± 0.2 mL | daily 15% ethanol consumption ([1]; young rats, Test, 1st week (before stress and administration)): 2.7 ± 0.2 mL | Number of movements in 10 min in register ([2]; 2 mg/kg intraperitoneally): 371 ± 56 | Number of movements in 10 min in register ([2]; 20 mg/kg intraperitoneally): 365 ± 79 | Number of movements in 10 min in register ([2]; 40 mg/kg into stomach): 439 ± 70 | Number of movements in 10 min in register ([2]; 40 mg/kg intraperitoneally): 324 ± 56 | Number of movements in 10 min in register ([2]; 80 mg/kg intraperitoneally): 398 ± 48 | Number of movements in 10 min in register ([2]; 200 mg/kg intraperitoneally): 275 ± 23 | motor activity ([2]; in words): reduction of animals' motor activity | Amplitude of concentration in % to control ([3]; 1·10^-4 M, 100 µM): 65,5% | Amplitude of concentration ([3]; 1·10^-4 M): 45.0 ± 0.6 mm | Amplitude of concentration in % to control ([3]; 1·10^-5 M, 10 µM): 83% | adrenoblocking action ([3]; 1·10^-5 and 1·10^-4 M): weak and mild adrenoblocking action | Amplitude of concentration in % to control ([3]; 1·10^-6 M, 1 µM): 94% | Amplitude of concentration ([3]; 1·10^-6 M): 65.0 ± 1.2 mm | contracting responses to adrenaline ([3]; in words): suppresses the contracting responses | cases with increased volume of short-lived memory ([4]; 2 mg/kg one time): 58.9% | cases with subjective and objective improvement of general state ([4]; 2 mg/kg one time): 87.2% | students with reduction of latent period of visual-motor reaction and number of differentiation disruptions ([4]; 2 mg/kg one time): 56.4% | tested whose short-lived memory did not worsen and remained on the initial level ([4]; 2 mg/kg one time): 25.7% | increase of volume of short-lived memory ([4]; 2 mg/kg one time, average): 25% | attention ([4]; 2 mg/kg one time, in words): reducing the attention switching time and the number of mistakes made | Attention switching number of errors [4, 10]: 3.20 ± 0.39 | Attention switching time [4, 10]: 95.39 ± 6.11 s | Shortlived memory [4, 10]: 46.92 ± 2.58 nom. units | Visual-motor reaction differentiation disruption [4, 10]: 0.46 ± 0.13 nominal units | Visual-motor reaction latent period [4, 10]: 0.51 ± 0.01 min | Work without mistakes [5, 11]: 14.3% | Number of errors per 500 symbols [5, 11]: 8.4 ± 1.2 | Work without mistakes [5, 12]: 28.6% | Number of errors per 500 symbols [5, 12]: 7.6 ± 1.9 | Work without mistakes [5, 13]: 25.0% | Number of errors per 500 symbols [5, 13]: 7.8 ± 1.8 | Work without mistakes [5, 14]: 16.5% | Number of errors per 500 symbols [5, 14]: 6.5 ± 1.6 | Intersection of a floor's center ([6]; 2 mg/kg on tongue root 20 min before electric painful influence): 0 | Defecation ([6]; 2 mg/kg on tongue root 20 min before electric painful influence, M ± m): 0.4 ± 0.28 | stress-protective effect ([6]; preliminarily administered): displays a stress-protective effect and considerably reduces on-stress-dependent excitement manifestations | hexenal duration of sleep (hexenal effects; 2 mg/kg): 36.0 ± 1.8 min | hexenal latent period (hexenal effects; 2 mg/kg): 4.5 ± 0.3 min | hexenal duration of sleep (hexenal effects; 40 mg/kg): 32.0 ± 1.9 min | hexenal latent period (hexenal effects; 40 mg/kg): 4.5 ± 0.6 min | hexenal duration of sleep (hexenal effects; 200 mg/kg): 28.0 ± 1.9 min | hexenal latent period (hexenal effects; 200 mg/kg): 3.8 ± 0.7 min | Threshold doses Strychnine 0,01% solution, death of animal (strychnine effects; 2 mg/kg single administration): 0.21 ± 0.007 mL | Threshold doses Strychnine 0,01% solution, start of twitch (strychnine effects; 2 mg/kg single administration): 0.17 ± 0.008 mL | Threshold doses Strychnine 0,01% solution, death of animal (strychnine effects; 40 mg/kg single administration): 0.21 ± 0.005 mL | Threshold doses Strychnine 0,01% solution, start of twitch (strychnine effects; 40 mg/kg single administration): 0.18 ± 0.007 mL | Threshold doses Strychnine 0,01% solution, death of animal (strychnine effects; 80 mg/kg single administration): 0.18 ± 0.006 mL | Threshold doses Strychnine 0,01% solution, start of twitch (strychnine effects; 80 mg/kg single administration): 0.17 ± 0.005 mL | Threshold doses Strychnine 0,01% solution, death of animal (strychnine effects; [15]): 0.19 ± 0.006 mL | Threshold doses Strychnine 0,01% solution, start of twitch (strychnine effects; [15]): 0.15 ± 0.008 mL | influence on strychnine effects (strychnine effects; in words): does not practically influence said strychnine effects | EEG variation a) (EEG [7]; 1,5 hrs after a dose): 2.89 arbitrary units | EEG variation b) (EEG [7]; 1,5 hrs after a dose): 2.79 arbitrary units | Biopotential slow form amplitude (EEG [7]; 1,5 hrs after a dose): 41.40 mV | Expression of biopotential slow forms (EEG [7]; 1,5 hrs after a dose): 2.85 arbitrary units | Expression of pathologically acute waves and peaked oscillation (EEG [7]; 1,5 hrs after a dose): 1.71 arbitrary units | Expression of α-rhythm (EEG [7]; 1,5 hrs after a dose): 4.89 arbitrary units | Paroxysmal bursts (EEG [7]; 1,5 hrs after a dose): 2.21 arbitrary units | α-frequency (EEG [7]; 1,5 hrs after a dose): 10.60 Hertz | α-oscillation amplitude (EEG [7]; 1,5 hrs after a dose): 105.70 mV | β-rhythm amplitude (EEG [7]; 1,5 hrs after a dose): 13.60 mV | β-rhythm expression (EEG [7]; 1,5 hrs after a dose): 2.14 arbitrary units | β-rhythm, low-frequency expression (EEG [7]; 1,5 hrs after a dose): 1.21 arbitrary units | EEG variation a) (EEG [7]; after two-week course): 3.00 arbitrary units | EEG variation b) (EEG [7]; after two-week course): 2.42 arbitrary units | Biopotential slow form amplitude (EEG [7]; after two-week course): 44.20 mV | Expression of biopotential slow forms (EEG [7]; after two-week course): 3.60 arbitrary units | Expression of pathologically acute waves and peaked oscillation (EEG [7]; after two-week course): 1.93 arbitrary units | Expression of α-rhythm (EEG [7]; after two-week course): 4.54 arbitrary units | Paroxysmal bursts (EEG [7]; after two-week course): 3.00 arbitrary units | α-frequency (EEG [7]; after two-week course): 10.40 Hertz | α-oscillation amplitude (EEG [7]; after two-week course): 95.00 mV | β-rhythm amplitude (EEG [7]; after two-week course): 16.40 mV | β-rhythm expression (EEG [7]; after two-week course): 2.07 arbitrary units | β-rhythm, low-frequency expression (EEG [7]; after two-week course): 1.29 arbitrary units | EEG-based activity (EEG [7]; all examined EEG indicators, in words): has nootropic activity | Attention mobilization: reaction expression (EEG [8]; 1,5 hrs after a dose): 2.82 arbitrary units | Eye opening-closing reaction: biopotential amplitude decline (EEG [8]; 1,5 hrs after a dose): 25.40 mV | Eye opening-closing reaction: response (EEG [8]; 1,5 hrs after a dose): 3.71 arbitrary units | HV-reaction (test with hyperventilation): reaction expression (EEG [8]; 1,5 hrs after a dose): 2.07 arbitrary units | HV-reaction: after-effect (EEG [8]; 1,5 hrs after a dose): 12.40 s | Presence of errors in count (EEG [8]; 1,5 hrs after a dose): 28.60% | Repeated response to eye opening-closing: reaction expression (EEG [8]; 1,5 hrs after a dose): 3.73 arbitrary units | Sonic signal count: reaction expression (EEG [8]; 1,5 hrs after a dose): 3.64 arbitrary units | Sonic signal count: reaction suppression (EEG [8]; 1,5 hrs after a dose): 5.79 sonic signals | Attention mobilization: reaction expression (EEG [8]; after two-week course): 3.21 arbitrary units | Eye opening-closing reaction: biopotential amplitude decline (EEG [8]; after two-week course): 23.60 mV | Eye opening-closing reaction: response (EEG [8]; after two-week course): 3.07 arbitrary units | HV-reaction (test with hyperventilation): reaction expression (EEG [8]; after two-week course): 2.64 arbitrary units | HV-reaction: after-effect (EEG [8]; after two-week course): 20.70 s | Presence of errors in count (EEG [8]; after two-week course): 33.00% | Repeated response to eye opening-closing: reaction expression (EEG [8]; after two-week course): 3.00 arbitrary units | Sonic signal count: reaction expression (EEG [8]; after two-week course): 3.79 arbitrary units | Sonic signal count: reaction suppression (EEG [8]; after two-week course): 6.57 sonic signals | weariness, irritation and internal unrest [9]: weariness, irritation and internal unrest significantly abate
